Assay results from patent US6635628B2, “Methods of administering camptothecin compounds for the treatment of cancer with reduced side effects” (The George Washington University, priority 1998, dated 2003).

Legend:
[1] = tested on: intestinal cells from whole small-intestine; assay: Uptake of 14C-labeled CPT-11 and SN-38 by intestinal cells, regions combined or not distinguished (TCA, pH, bicarbonate effects)
Experimental: By adding the drugs to Hank's solution containing intestinal cells from whole small-intestine, uptake studies were performed.
Intestinal cells were isolated as previously described (28, 29). Briefly, male hamsters were anesthetized with sodium pentobarbital (Nembutol 70 mg/kg body weight). The entire intestine was removed. The intestinal lumen was washed with 37° C. Hank's solution. Sacs of the ileum (12.5 cm from cecum) and jejunum (remaining small intestine) were rinsed, as well as the intestinal sacs of the anal site of small intestine (12.5 cm from cecum) and oral site (the other small intestine). The sacs were rinsed with oxygenated buffer solution containing sodium citrate (96 mM NaCl, 1.5 mM KCl, 5.6 mM KH2PO4, 27 mM sodium citrate, pH 7.3), and incubated for 10 min in the same buffer at 37° C. The sacs were then emptied, filled with oxygenated buffer solution containing EDTA (140 mM NaCl, 16 mM Na2HPO4, 2 mM EDTA, 0.5 mM dithiothreitol, pH 7.3), incubated for 10 min at 37° C. Then each sac was placed onto a petri dish and gently vortexed for 1 min. The buffer containing intestinal cells was recovered in 50 mL of Hanks' solution, washed twice and adjusted at 10^6 cells/ml in Hanks' medium (cellular stock solution containing 0.5% bovine serum albumin, pH 7.4).
The cellular suspension of 0.95 ml was incubated for 15 min in a 37° C. water bath with stirring. Uptake was started by the addition of 0.05 ml PBS (at pH 3 or 9) containing labeled SN-38 or CPT-11 at 37° C. At various time intervals, 100 μL, sample aliquots were diluted into 3 mL of Hank's medium at 4° C. to stop the uptake. The stop solution containing the cells was filtered through a glass microfiber filter (Glass Fiber Filter Circles G4, Fisherbrand, Pa.) under vacuum (20 psi). The cells were washed once with 5 mL of 0.5% bovine serum albumin-containing Hanks' medium (4° C.) and once with 20 mL of Hanks' solution (4° C.). The filters were placed in a vial containing 4 mL of scintillation liquid (Ultra Gold, Packard, Conn.) and the radioactivity was counted in a β scintillation counter (LS3801, Beckman, Md.).
The effect of the metabolic inhibitor, 2,4 dinitrophenol (1 mM), was studied by adding this agent to the cells 3 min prior to either ^14C-CPT-11 or ^14C-SN-38 (2 μM). The effect of 20 mM of taurocholic acid (TCA) on the uptake of both CPT-11 and SN-38 was investigated following overnight incubation of ^14C-CPT-11 (20 μM) and ^14C-SN-38 (2 μM) in Hank's solution, at pH 7.4 and in the presence and absence of TCA. The effect of 200 μM of DNP-SG or SN-38-Glu was also studied by adding these agents to the cell preparation 7 min prior to either ^14C-CPT-11 (20 μM) and ^14C-SN-38 (2 μM).
The effect of physiologic pH on the initial intestinal uptake rate of CPT-11 and SN-38 was investigated following overnight incubation of ^14C-CPT-11 (20 μM) and ^14C-SN-38 (2 μM) in phosphate buffered saline at pH 6.2, 6.8, 7.4 and 8, respectively.
The initial rate of uptake of CPT-11 or SN-38 was derived from the linear regression analysis of the respective regression line obtained from the plot of the uptake as a function of time. The initial rates of uptake were plotted against the corresponding concentration. The data were fitted by least-squares nonlinear regression analysis (SigmaStat, Jandel Scientific, CA), using the equation V=(Vmax·S)/(Km+S)+Kd·S where V represents the initial rate of uptake. Vmax is the maximum rate of uptake, Km is the apparent Michaelis constant, Kd is the rate of diffusion and S is the concentration of CPT-11 or SN-38.

[2] = format: physicochemical; details: 1,000-molecular weight cut-off membrane
From the text: Monomers were separated from micellar aggregates by ultrafiltration through a 1000-molecular weight cut-off membrane (YM1) as described in Materials and Methods. Values are the monomeric forms of the indicated metabolites, expressed as a percentage (%) of the concentration of the initial solution before ultrafiltration. Comparison between TCA and control was estimated by Mann-Whitney test. […] Abbreviations used: CPT lactone (CPT lact.); CPT carboxylate (CPT carb.); SN-38 lactone (SN lact.); and SN-38 carboxylate (SN carb.).

[3] = molecular target: T1, topoisomerase I (Homo sapiens, UniProt P11387); details: cited from earlier work
T1 sequence (P11387 1-765): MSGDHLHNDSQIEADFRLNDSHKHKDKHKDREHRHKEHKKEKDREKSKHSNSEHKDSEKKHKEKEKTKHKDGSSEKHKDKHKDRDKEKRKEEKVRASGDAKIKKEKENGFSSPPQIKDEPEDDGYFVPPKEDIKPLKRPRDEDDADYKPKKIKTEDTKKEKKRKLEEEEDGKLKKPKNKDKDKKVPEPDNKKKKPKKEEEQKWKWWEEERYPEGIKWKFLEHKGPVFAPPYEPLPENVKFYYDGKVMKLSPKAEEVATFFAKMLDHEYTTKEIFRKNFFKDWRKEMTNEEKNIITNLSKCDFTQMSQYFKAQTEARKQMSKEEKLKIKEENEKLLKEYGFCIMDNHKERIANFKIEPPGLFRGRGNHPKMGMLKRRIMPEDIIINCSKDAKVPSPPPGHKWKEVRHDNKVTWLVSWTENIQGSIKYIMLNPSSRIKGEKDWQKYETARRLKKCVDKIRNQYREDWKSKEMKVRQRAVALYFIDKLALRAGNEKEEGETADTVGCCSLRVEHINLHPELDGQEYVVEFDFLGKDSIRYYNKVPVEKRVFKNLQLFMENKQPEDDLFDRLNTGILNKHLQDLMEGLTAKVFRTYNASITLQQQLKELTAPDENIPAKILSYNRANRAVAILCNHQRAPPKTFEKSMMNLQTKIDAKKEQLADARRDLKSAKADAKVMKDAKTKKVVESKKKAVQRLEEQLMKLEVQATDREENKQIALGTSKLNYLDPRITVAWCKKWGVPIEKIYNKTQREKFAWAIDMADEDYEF

[4] = tested on: HT29 cells; assay: Initial uptake rate of [14C]SN-38 by HT29 cells as a function of pH; format: in vitro ADME
Experimental: The uptake study was initiated by adding the compounds to Hanks' solution containing HT29 cells. The comparative initial rate of uptake as function of pH was analyzed by Kruskal-Wallis test (p<0.001) and Dunn's method (*p<0.05).
Uptake of ^14C-labeled CPT-11 and SN-38 was measured by rapid vacuum filtration assay (28, 29).

[5] = tested on: HT29 cells; assay: Cytotoxicity assay (MTT, mitochondrial dehydrogenase activity) in HT29 cells; format: cell-based; details: 0.4 μM SN-38; 24 h exposure, 24 h drug-free; pH 6.2, 6.8, 7.4, 8.0
Experimental: Rapid colorimetric assay for mitochondrial dehydrogenase activity was modified and used for the estimation of cytotoxicity of SN-38 (Mosmann, 1983). […] After 24 h-exposure, the cells were washed twice, and subjected to a drug-free incubation for 24 h. Then, the cells were incubated with 0.5 mg/ml 3-(4,5-dimethylthiazol-2-yl)-2,5-diphenyl-tetrazolium bromide (MTT) for 4 h, and the blue formazan crystals were solubilized by addition of 10% n-dodecylsulfate sodium salt (SDS) in 0.1N HCl and overnight incubation. The formation of the blue formazan compound is spectrophotometrically determined at 560 nm (Ultraspec 4050, LKB, Bromma, Sweden).

[6] = Solubility in water; format: physicochemical
[7] = cited from earlier work
[8] = rat; 24 h after IV injection of 14C-SN-38; cited from earlier work
[9] = bile of two men treated by cisplatin who received CPT-11 intravenously; cited from earlier work

Row | SMILES | transport mechanism in intestinal cells [1] | saturability of the uptake (predominant component) ([1]; jejunal and ileal cells, SN-38 concentrations lower than 2 μM) | effect of TCA on % monomer concentration / association to TCA micelles [2] | topoisomerase I-inhibitory activity [3] | initial uptake rate at acidic pH (pH 6.2 and 6.8) versus neutral or alkaline pH (pH 7.4 and 8) [1] | initial uptake rate in the presence of 20 mM TCA ([1]; cells from jejunum and ileum combined, 14C-CPT-11 20 μM, 14C-SN-38 2 μM, pH 7.4, mean±SD, n=5) | decrease of the uptake rate at a pH greater than 6.8 ([1]; pH 6.2) | uptake when HEPES of the Hank's buffer was replaced by sodium bicarbonate ([1]; pH adjusted to greater than 7) | initial rate of uptake in HT-29 cells compared with isolated hamster intestinal cells [4] | uptake rate in HT29 cells as a function of pH ([4]; 2 μM [14C]SN-38, pH 6.2, 6.8, 7.4, 8.0) | cytotoxicity for HT29 cells as a function of pH [5] | solubility in water [6] | share in lactone form at pH 7.4 [7] [%] | distribution of radioactivity [8] | share of the biliary content [9]
1 | CCc1c2c(nc3ccc(O)cc13)-c1cc([C@@](O)(CC)C(=O)O)c(CO)c(=O)n1C2 [SN-38 carboxylate] | actively absorbed | mostly non-saturable | did not significantly associate to TCA micelles | only minor |  |  |  |  |  |  |  |  |  |  | 
2 | CCc1c2c(nc3ccc(O)cc13)-c1cc3c(c(=O)n1C2)COC(=O)[C@]3(O)CC [SN-38, 7-ethyl-10-hydroxy-camptothecin] |  |  |  |  | several times greater | 69.3±12.7 % of control without TCA | around 65% | decreased | lower in HT-29 cells than in isolated hamster intestinal cells | significantly greater at pH 6.2 and 6.8, than at pH 7.4 and 8.0 | significantly higher at pH 6.2 and 6.8 than at pH 7.4 and 8.0 | poorly soluble in water | 13 | found exclusively in the gastrointestinal tract | 0.9-3.3%
